Measured values: ChEMBL document CHEMBL4138123, “Design, synthesis and biological evaluation of novel pyrazolochalcones as potential modulators of PI3K/Akt/mTOR pathway and inducers of apoptosis in breast cancer cells” (Eur J Med Chem, 2017)

Experiments:
TK-10 = test: Cytotoxicity against human TK10 cells assessed as cell growth at 100 uM after 48 hrs by sulforhodamine B assay relative to control; type: functional; settings: TK-10, 48 h, read-out: Activity
ACHN [1] = test: Cytotoxicity against human ACHN cells assessed as cell growth at 1 uM after 48 hrs by sulforhodamine B assay relative to control; type: functional; settings: read-out: Activity
HCC 2998 [2] = test: Cytotoxicity against human HCC2998 cells assessed as cell growth at 100 uM after 48 hrs by sulforhodamine B assay relative to control; type: functional; settings: HCC 2998, 48 h, read-out: Activity
NCI-H23 = test: Cytotoxicity against human NCI-H23 cells assessed as cell growth at 100 uM after 48 hrs by sulforhodamine B assay relative to control; type: functional; settings: NCI-H23, 48 h, read-out: Activity
HCT-116 = test: Cytotoxicity against human HCT116 cells assessed as cell growth at 0.1 uM after 48 hrs by sulforhodamine B assay relative to control; type: functional; settings: HCT-116, 48 h, read-out: Activity
NCI-H522 = test: Cytotoxicity against human NCI-H522 cells assessed as growth inhibition after 48 hrs by sulforhodamine B assay; type: functional; settings: NCI-H522, 48 h
NCI-H322M = test: Cytotoxicity against human NCI-H322M cells assessed as cell growth at 10 uM after 48 hrs by sulforhodamine B assay relative to control; type: functional; settings: read-out: Activity
MDA-MB-231 [3] = test: Cytotoxicity against human MDA-MB-231 cells assessed as cell growth at 1 uM after 48 hrs by sulforhodamine B assay relative to control; type: functional; settings: MDA-MB-231, 48 h, read-out: Activity
ACHN [4] = test: Cytotoxicity against human ACHN cells assessed as growth inhibition after 48 hrs by sulforhodamine B assay; type: functional
SN12C = test: Cytotoxicity against human SN12C cells assessed as cell growth at 100 uM after 48 hrs by sulforhodamine B assay relative to control; type: functional; settings: read-out: Activity
HCC 2998 [5] = test: Cytotoxicity against human HCC2998 cells assessed as cell growth at 0.01 uM after 48 hrs by sulforhodamine B assay relative to control; type: functional; settings: HCC 2998, 48 h, read-out: Activity
BT-549 = test: Cytotoxicity against human BT549 cells assessed as cell growth at 1 uM after 48 hrs by sulforhodamine B assay relative to control; type: functional; settings: BT-549, 48 h, read-out: Activity
DU-145 = test: Cytotoxicity against human DU145 cells assessed as cell growth at 0.01 uM after 48 hrs by sulforhodamine B assay relative to control; type: functional; settings: DU-145, 48 h, read-out: Activity
MCF7 = test: Cytotoxicity against human MCF7 cells assessed as cell growth at 1 uM after 48 hrs by sulforhodamine B assay relative to control; type: functional; settings: MCF7, 48 h, read-out: Activity
MDA-MB-468 = test: Cytotoxicity against human MDA-MB-468 cells assessed as growth inhibition after 48 hrs by sulforhodamine B assay; type: functional; settings: MDA-MB-468, 48 h
OVCAR-3 = test: Cytotoxicity against human OVCAR3 cells assessed as cell growth at 0.1 uM after 48 hrs by sulforhodamine B assay relative to control; type: functional; settings: OVCAR-3, 48 h, read-out: Activity
786-0 = test: Cytotoxicity against human 786-0 cells assessed as cell growth at 10 uM after 48 hrs by sulforhodamine B assay relative to control; type: functional; settings: 786-0, 48 h, read-out: Activity
Malme-3M = test: Cytotoxicity against human MALME-3M cells assessed as growth inhibition after 48 hrs by sulforhodamine B assay; type: functional
OVCAR-8 = test: Cytotoxicity against human OVCAR8 cells assessed as growth inhibition after 48 hrs by sulforhodamine B assay; type: functional; settings: OVCAR-8, 48 h
MOLT-4 = test: Cytotoxicity against human MOLT4 cells assessed as cell growth at 0.1 uM after 48 hrs by sulforhodamine B assay relative to control; type: functional; settings: MOLT-4, 48 h, read-out: Activity
UACC-257 [6] = test: Cytotoxicity against human UACC257 cells assessed as cell growth at 100 uM after 48 hrs by sulforhodamine B assay relative to control; type: functional; settings: UACC-257, 48 h, read-out: Activity
U-251 = test: Cytotoxicity against human U251 cells assessed as cell growth at 1 uM after 48 hrs by sulforhodamine B assay relative to control; type: functional; settings: U-251, 48 h, read-out: Activity
SF-539 = test: Cytotoxicity against human SF539 cells assessed as cell growth at 100 uM after 48 hrs by sulforhodamine B assay relative to control; type: functional; settings: SF-539, 48 h, read-out: Activity
COLO 205 = test: Cytotoxicity against human COLO205 cells assessed as cell growth at 1 uM after 48 hrs by sulforhodamine B assay relative to control; type: functional; settings: COLO 205, 48 h, read-out: Activity
K562 = test: Cytotoxicity against human K562 cells assessed as cell growth at 1 uM after 48 hrs by sulforhodamine B assay relative to control; type: functional; settings: K562, 48 h, read-out: Activity
UACC-257 [7] = test: Cytotoxicity against human UACC257 cells assessed as cell growth at 10 uM after 48 hrs by sulforhodamine B assay relative to control; type: functional; settings: UACC-257, 48 h, read-out: Activity
T47D = test: Cytotoxicity against human T47D cells assessed as cell growth at 1 uM after 48 hrs by sulforhodamine B assay relative to control; type: functional; settings: read-out: Activity
UO-31 = test: Cytotoxicity against human UO31 cells assessed as cell growth at 0.01 uM after 48 hrs by sulforhodamine B assay relative to control; type: functional; settings: UO-31, 48 h, read-out: Activity
MDA-MB-231 [8] = test: Cytotoxicity against human MDA-MB-231 cells assessed as growth inhibition after 48 hrs by MTT assay; type: functional, cell-based; settings: MDA-MB-231, 48 h
SF-268 = test: Cytotoxicity against human SF268 cells assessed as cell growth at 0.1 uM after 48 hrs by sulforhodamine B assay relative to control; type: functional; settings: SF-268, 48 h, read-out: Activity
SK-MEL-5 [9] = test: Cytotoxicity against human SK-MEL-5 cells assessed as cell growth at 100 uM after 48 hrs by sulforhodamine B assay relative to control; type: functional; settings: SK-MEL-5, 48 h, read-out: Activity
HOP-62 = test: Cytotoxicity against human HOP62 cells assessed as cell growth at 1 uM after 48 hrs by sulforhodamine B assay relative to control; type: functional; settings: HOP-62, 48 h, read-out: Activity
SK-MEL-5 [10] = test: Cytotoxicity against human SK-MEL-5 cells assessed as cell growth at 0.01 uM after 48 hrs by sulforhodamine B assay relative to control; type: functional; settings: SK-MEL-5, 48 h, read-out: Activity
M14 = test: Cytotoxicity against human M14 cells assessed as cell growth at 0.01 uM after 48 hrs by sulforhodamine B assay relative to control; type: functional; settings: M14, 48 h, read-out: Activity
HCT-15 = test: Cytotoxicity against human HCT15 cells assessed as cell growth at 100 uM after 48 hrs by sulforhodamine B assay relative to control; type: functional; settings: HCT-15, 48 h, read-out: Activity

COc1ccc(-c2cc(/C=C/C(=O)c3ccc(OC)c(OC)c3)[nH]n2)cc1
growth at 100 µM (TK-10): -98%
growth at 1 µM (ACHN [1]): 82%
growth at 100 µM (HCC 2998 [2]): -95%
growth at 100 µM (NCI-H23): -73%
growth at 0.1 µM (HCT-116): 105%
GI50 (NCI-H522): 0.41 µM
LC50 (NCI-H522): 5.91 µM
TGI (NCI-H522): 1.39 µM
growth at 10 µM (NCI-H322M): -32%
growth at 1 µM (MDA-MB-231 [3]): 79%
GI50 (ACHN [4]): 1.68 µM
LC50 (ACHN [4]): 8.71 µM
TGI (ACHN [4]): 3.83 µM
growth at 100 µM (SN12C): -86%
growth at 0.01 µM (HCC 2998 [5]): 100%
growth at 1 µM (BT-549): 85%
growth at 0.01 µM (DU-145): 104%
growth at 1 µM (MCF7): 27%
GI50 (MDA-MB-468): 1.22 µM
LC50 (MDA-MB-468): 7.12 µM
TGI (MDA-MB-468): 2.94 µM
growth at 0.1 µM (OVCAR-3): 104%
growth at 10 µM (786-0): -89%
GI50 (Malme-3M): 1.62 µM
LC50 (Malme-3M): 7.38 µM
TGI (Malme-3M): 3.45 µM
GI50 (OVCAR-8): 2.16 µM
LC50 (OVCAR-8): 57.6 µM
TGI (OVCAR-8): 10.4 µM
growth at 0.1 µM (MOLT-4): 108%
growth at 100 µM (UACC-257 [6]): -100%
growth at 1 µM (U-251): 57%
growth at 100 µM (SF-539): -99%
growth at 1 µM (COLO 205): 95%
growth at 1 µM (K562): 56%
growth at 10 µM (UACC-257 [7]): -67%
growth at 1 µM (T47D): 70%
growth at 0.01 µM (UO-31): 86%
IC50 (MDA-MB-231 [8]): 0.6 µM
growth at 0.1 µM (SF-268): 99%
growth at 100 µM (SK-MEL-5 [9]): -100%
growth at 1 µM (HOP-62): 94%
growth at 0.01 µM (SK-MEL-5 [10]): 90%
growth at 0.01 µM (M14): 101%
growth at 100 µM (HCT-15): -92%
